For data set [1], the system named is LPS-induced TNFα release in whole blood. Kind of data set: Inhibition of in vitro LPS-induced TNFα production in whole blood of COPD patients. Particulars: Homo sapiens; whole blood of COPD patients (n=7), LPS 50 μg/ml, 22-24 h at 37° C., ELISA. The format is cell-based. From the text: The aim of this study was to compare the in vitro activities of three selective PDE4 inhibitors (compound 1, rolipram which is 4-[3-(cyclopentyloxy)-4-methoxy-phenyl]-2-pyrrolidinone, and cilomilast) at reducing lipopolysaccharide (LPS)-induced TNFα release in whole blood of COPD patients. Thirteen COPD patients, diagnosed according to the ATS guidelines^iv, were included in this study to determine the concentration-effect of LPS on TNF^α production (n=6) and the IC50 values of compound 1, rolipram and cilomilast (n=7).
Blood (15 ml/patient) was collected in heparin tubes and distributed in 96-well microplates (250 μl/well).
After a 30-min incubation at 37° C., 25 μl of increasing concentrations of the compound to test or vehicle were added in different wells. The microplates were incubated at 37° C. for 30 min, and then 25 μl of LPS (E. coli) at 50 μg/ml (stimulated wells) or 25 μl of sterile saline (unstimulated wells) were added. The microplates were incubated 22-24 h at 37° C.
125 μl of the supernatant plasma were transferred gently in sterile 96-well microplates and stored at −80° C. until TNFα assay. The TNFα production was then measured by an ELISA assay.
A general note: An ELISA detects its analyte on a solid surface through an enzyme-linked reagent.

The test system of data set [2] is LPS-induced lung neutrophilia. Kind of data set: Neutrophilia induced by LPS aerosol in the C57 bl/6 mouse. The format is in vivo. Particulars: oral route, 1 h before LPS aerosol 100 μg/ml; bronchoalveolar washings 24 h after exposure. As to the method:
(§1) The model retained to assess the usefulness of the compounds of the invention for the treatment of COPD was a neutrophilia model. Neutrophilia was induced by exposure of rats or mice to a lipopolysaccharide (LPS) aerosol.
The animals were treated with compound 1 when conscious, that was by the oral route.
One hour after treatment, the mice were placed in a plexiglass box (at most 25 mice to a box) and were given a 100 μg/ml aerosol of LPS (Escherichia coli, serotype O55:B5) for 1 hour. Control mice were not given the LPS aerosol.
Twenty-four hours after the exposure to the LPS, the animals were then anaesthetised by an intraperitoneal injection of 0.6% sodium pentobarbital at a rate of 15 ml/kg. A tracheotomy was carried out and a tracheal cannula was inserted. […]
The cells contained in the bronchoalveolar washing fluid were counted using a Coulter particle counter. […]
The arithmetic mean and the standard deviation (SD) of the number of neutrophils in the bronchoalveolar washing fluids were calculated for each treatment group. The percentage inhibition was calculated in the following manner: [formula] […]
The 90% confidence interval for the percentage inhibition was to be calculated by the “Delta method” or “Fieller method” ^i, ii & iii (Armitage & al, 1998; Feuerstein & al, 1997; Hubert & al, 1988) if appropriate.

Data set [3] has as its system LPS-induced lung neutrophilia. Kind of data set: Neutrophilia induced by LPS aerosol in the Wistar rat. The format is in vivo. To be noted: Wistar rats, oral. As to the method: as §1
The animals were treated with compound 1 or cilomilast when conscious, that was by the oral route.
One hour after the treatment, the rats were placed in a plexiglass box and were given a 200 μg/ml aerosol of LPS (Escherichia coli, serotype O55:B5) for 1 hour. Control rats were not given the LPS aerosol. This control is called ‘sham’ in FIGS. 1 and 2.
Two hours after the exposure to the LPS, the animals were then anaesthetised by intraperitoneal injection of 6% sodium pentobarbital at a rate of 1 ml/kg. A tracheotomy was carried out and a tracheal cannula was inserted.
Using a 5-ml syringe, 3 consecutive washings were carried out with a 5-ml volume of a […] NaCl+EDTA solution (37° C.), in order to recover the cell population present in the lumen of the airways. The fluid which had thus been withdrawn was stored at +4° C. on ice.

Data set [4] in a line: Half-life in humans after single oral doses to healthy volunteers. Particulars: human, in vivo, single oral doses 1 to 25 mg. The source says:
Such values indicate that compound 1 may be administered once daily.

For data set [5] the following is noted: in humans; Torphy et al. 1999; cited from earlier work.
For data set [6] the following is noted: single dose of 20 mg; Murdoch et al. 1998; cited from earlier work.

SMILES strings stand for the structures. Read-outs that look alike come from different tables or passages of the source.

The values that follow come from US6544983B2, “Diazepinoindoles for the treatment of chronic obstructive pulmonary disease” (Pfizer Inc, priority 2000, dated 2003).

Consider `COc1ccc(C2CNC(=O)C2)cc1OC1CCCC1` (stereo not drawn) [rolipram, 4-[3-(cyclopentyloxy)-4-methoxy-phenyl]-2-pyrrolidinone], for which the IC50 (commonly the concentration needed to halve the response being measured) in data set [1] amounted to 2800 ± 900 nM.

Consider `Nc1cc2c3c(c1)C(c1ccccc1)=N[C@@H](NC(=O)c1cccnc1)C(=O)N3CC2` [compound 1, (3R)N-(9-amino-4-oxo-1-phenyl-3,4,6,7-tetrahydro-[1,4]diazepino[6,7,1-hi]indol-3-yl)-nicotinamide], for which the “inhibition of the LPS-induced lung neutrophilia in mice” value in data set [2] is on record as “strongly inhibited”. In addition, in data set [3] (10 mg/kg), the “efficiency relative to cilomilast at the same dose” value is given as “twice more efficient than cilomilast”. Besides, the “percentage of inhibition of the LPS-induced lung neutrophilia” value in data set [3] (10 mg/kg) came out at 74%; in data set [3] (30 mg/kg), 80%. The same compound registered a 50% inhibitory concentration (IC50) in data set [1] of 1300 ± 700 nM. For the same compound, the half-life – broadly, how long it takes for the measured level to halve – in data set [4] (read-out: mean terminal half-life values, range over doses) was 13.9 to 17.1 h; in data set [4] (read-out: terminal half-life, mean over all doses (converted)), 15.4 h.

Consider `COc1ccc([C@]2(C#N)CC[C@@H](C(=O)O)CC2)cc1OC1CCCC1` [cilomilast, cis-4-cyano-4-[3-(cyclopentyloxy)-4-methoxyphenyl]cyclohexane carboxylic acid], for which the “percentage of inhibition of the LPS-induced lung neutrophilia” value in data set [3] (30 mg/kg) is listed as 74%. Further, in data set [1], the IC50 was more than 10000 nM. Further, the elimination half-life entry in data set [5] was “approximately 8 hours”. Moreover, the side effects entry in data set [6] was “relevant side effects such as nausea and vomiting occurred”.
